From patent US6831080B2, “Cinnamide derivatives as KCNQ potassium channel modulators” (Bristol-Myers Squibb Company, priority 2001, dated 2004)

What was measured:
[1] = test system: stretched attend postures, BalbC/HSD mice; experiment: Canopy test for anxiety: stretched attend postures (SAPs); format: in vivo, mouse
Source text: The purpose of the Canopy test is to investigate the potential of compounds of Formula I as effective treatments for anxiety by examining an integral component of the risk assessment repertoire of defensive behaviors, the stretched attend posture (SAPs). […] This behavior is investigatory, and is considered an important behavioral indicator of anxiety in mice (Grewal et al., 1997). In brief, mice are placed on an elevated circular platform with a covered space in the middle, and an open space surrounding the covered zone. The number of SAPs the animals makes when exploring this environment are measured.
Subjects: Male BalbC/HSD mice (Harlan Sprague Dawley) weighing approximately 20-25 g at the beginning of the experiment, were used. Animals were group housed 4-5 per cage, in standard shoebox cages and maintained on a 12:12 h light-dark cycle (lights on at 0600). All animals were allowed food and water ad libitum throughout the procedure.
Apparatus: The test apparatus is comprised of a black plexiglas circular platform (70 cm diameter) elevated 60 cm above the floor. A clear red plexiglas (translucent) ‘canopy’ (38 cm diameter) is supported 4 cm directly above the platform by a central pillar, effectively dividing the platform into an inner, covered zone (beneath the canopy) and an outer, exposed zone. The apparatus is illuminated by normal room lighting.
Procedure: On test days mice are transported in their home cage to the testing room which is free of noise/distraction and the mice are injected with the compound of choice, prior to testing. For the KCNQ compounds, when administered IV, pretreatment time is 15 minutes. For oral administration, pretreatment time is 1 hour. Following the pretreatment, the animal is placed in the covered zone of the platform, always oriented in the same direction, facing the pillar. For 5 minutes the animals are allowed to freely explore the apparatus. The dependent variable is the number of Stretched Attend Postures, which are scored by an observer blind to treatment condition. Data were analyzed by an overall analysis of variance followed by Dunnett's post hoc tests. An effect was considered significant if p<0.05.
All test compounds are administered in a volume of 10 ml/kg. Vehicle and buspirone (as the positive control) treated mice were run with each experiment, and buspirone was dissolved in the same vehicle as used per each compound. Compounds of Formula I were administered IV, in a vehicle containing 10% PEG400/5% Tween/85% water, warmed on a hot plate.

[2] = molecular target: cloned mouse KCNQ2 (mKCNQ2) (Mus musculus, UniProt Q9Z351); experiment: KCNQ oocyte two-electrode voltage clamp, whole-cell outward current; format: cell-based; conditions: single holding potential (−40 μM [sic]), Xenopus oocytes
cloned mouse KCNQ2 (mKCNQ2), sequence (Q9Z351 whole entry): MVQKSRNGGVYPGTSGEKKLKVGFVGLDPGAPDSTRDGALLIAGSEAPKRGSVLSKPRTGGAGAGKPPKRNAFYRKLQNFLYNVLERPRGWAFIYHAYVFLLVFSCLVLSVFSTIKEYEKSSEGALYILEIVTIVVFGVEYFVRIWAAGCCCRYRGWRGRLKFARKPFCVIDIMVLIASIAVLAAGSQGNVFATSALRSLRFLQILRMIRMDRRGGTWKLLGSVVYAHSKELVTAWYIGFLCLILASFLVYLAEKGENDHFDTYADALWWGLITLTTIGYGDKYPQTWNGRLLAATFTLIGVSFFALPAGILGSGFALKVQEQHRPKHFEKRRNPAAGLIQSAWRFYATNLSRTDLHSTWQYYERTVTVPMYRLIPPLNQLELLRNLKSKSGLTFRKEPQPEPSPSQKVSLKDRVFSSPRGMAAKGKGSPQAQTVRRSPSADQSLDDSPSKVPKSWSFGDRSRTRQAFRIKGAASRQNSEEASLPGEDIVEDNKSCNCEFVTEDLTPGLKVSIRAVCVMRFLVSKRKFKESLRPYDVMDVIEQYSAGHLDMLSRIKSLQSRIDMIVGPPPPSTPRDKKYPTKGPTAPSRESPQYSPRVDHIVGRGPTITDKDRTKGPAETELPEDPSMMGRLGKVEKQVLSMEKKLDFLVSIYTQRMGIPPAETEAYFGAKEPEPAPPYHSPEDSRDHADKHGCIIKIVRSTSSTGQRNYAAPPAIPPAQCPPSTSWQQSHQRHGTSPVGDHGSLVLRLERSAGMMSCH
Method: The ability of compounds described in the present invention to open KCNQ channels and increase whole-cell outward (K^+) KCNQ-mediated currents was assessed under voltage-clamp conditions by determining their ability to increase cloned mouse KCNQ2 (mKCNQ2)-mediated, heteromultimeric KCNQ2/3 (mKCNQ2/hKCNQ3)-mediated, and human KCNQ5 (hKCNQ5)-mediated outward currents heterologously expressed in Xenopus oocytes. Oocytes were prepared and injected using standard techniques; each oocyte was injected with approximately 50 nl of mKCNQ2, or hKCNQ5 cRNA. In the case of mKCNQ2/h3 heteromultimeric channel expression, equal amounts (25-50 nL) of each cRNA were co-injected. […] Following injection, oocytes were maintained at 17° in ND96 medium consisting of (in mM): NaCl, 90; KCl, 1.0; CaCl2, 1.0; MgCl2, 1.0; HEPES, 5.0; pH 7.5. Horse serum (5%) and penicillin/streptomycin (5%) were added to the incubation medium. Recording commenced 2-6 days following mRNA injection. Prior to the start of an experiment oocytes were placed in a recording chamber and incubated in Modified Barth's Solution (MBS) consisting of (in mM): NaCl, 88; NaHCO3, 2.4; KCl, 1.0; HEPES, 10; MgSO4, 0.82; Ca(NO3)2, 0.33; CaCl2, 0.41; pH 7.5.
Oocytes were impaled with electrodes (1-2 MΩ) and standard 2-electrode voltage clamp techniques were employed to record whole-cell membrane currents. Recordings were accomplished using standard two-electrode voltage clamp techniques [Stuhmer, W., et al., Methods in Enzymology, Vol. 207: 319-339 (1992)]. Voltage-clamp protocols typically consisted of a series of voltage steps 1-5 sec duration, in +10 mV steps from a holding potential of −90 mV to a maximal potential of +40 mV; records were digitized at 5 kHz and stored on a computer using pClamp data acquisition and analysis software (Axon Instruments). Compounds were evaluated at a single concentration and at a single holding potential (−40 μM); the effect of the selected compounds of Formula I on KCNQ2 current was expressed as the percent of control current and is listed in Table I.

[3] = test system: nerve injury-induced tactile allodynia (L5/L6 ligation), Sprague Dawley rats; experiment: Chung model of neuropathic pain (Chung surgery and von Frey test); format: in vivo, rat; conditions: 100 mg/kg, i.v., von Frey thresholds over 90 min
Method: To test agents for activity against peripheral mononeuropathy nerve injury-induced tactile allodynia, male Sprague Dawley rats (wt. 120-160 g) were surgically prepared with unilateral tight ligation of spinal nerves L5 and L6 following the method of Kim and Chung (Kim S. H., Chung J. M. (1992) Pain, September;50(3):355-63). After 3-4 weeks recovery, paw withdrawal to light touch was assessed as described by Chaplan et al. (Chaplan S. R., et al., (1994) J. Neurosci Methods, July;53(1):55-63). In brief, rats are placed in a plastic cage with a wire mesh bottom and allowed to acclimate for 15-30 minutes, until cage exploration and grooming stops. The plantar surface of each hind paw is touched with a series of von Frey hairs with varying stiffness requiring a known force to buckle to determine the nociceptive threshold. Adult male Sprague Dawley rats (avg. wt. 340 g) were tested in the present study. After acclimation, baseline von Frey thresholds were assessed for the injured hindpaw at −15 min. All test compounds were delivered at 0 min by the intravenous (i.v.) route in a volume of 0.5-2 ml/kg. The vehicle for test compounds was 100% PEG-400. For gabapentin the vehicle was deionized H2O. Animals were tested in one of the following 4 treatment conditions: (a) PEG400, (b) gabapentin (Neurontin) 100 mg/kg, (c) test compounds 3 mg/kg and (d) test compounds 10 mg/kg. Following drug administration, von Frey thresholds are measured at 15, 30, 60 and 90 min. Data were analyzed by a 2-way repeated measures analysis of variance followed by Dunnett's test (p<0.05). Experimenters were kept blind to the treatment condition of rats they tested.
Reversal of neuropathic pain behavior may be expressed as a percentage (0-100%) of the maximum possible effect, over and above the vehicle effects. Specifically, drug effects can be described in terms Δ% MPE according to the following equation: [formula]
AUCdrug=area under the curve for von Frey thresholds of the drug-treated group;
AUCvehicle=area under the curve for von Frey thresholds in the vehicle group;
Time=duration of post-drug testing period (90 min); and
Max=maximum von Frey threshold (15 g).
For example, a compound which immediately reversed neuropathic pain behavior to normal levels, such that animals only responded to the highest von Frey filament (15 g), and maintained normal levels through out the post-drug testing period (90 min) would be calculated as Δ% MPE=100%.

[4] = test system: cortical spreading depression (KCl application), Long-Evans rats; experiment: In vivo electrophysiology: number of cortical spreading depressions produced by KCl application; conditions: i.v., 15 min prior to KCl, rat
Source text: Male Long-Evans rats (300-450 g) were used in the present studies (Harlan). Rats were anesthetized with urethane anesthesia (1.2 g/kg i.p.) and placed in a stereotaxic frame. Under anesthesia a Silastic catheter was placed in the jugular vein of the rats. The skull was exposed using a scalpel. A small hole (approximately 2 mm by 3 mm) was drilled in to the skull rostral to the lambdoid suture using a microdrill and steel burr. The dura was disrupted and a drop of mineral oil was placed in this hole to prevent dehydration of the underlying cortex. Ultimately this hole was used for the application of crystalline KCl (described below).
Two additional holes were place in the skull unilaterally at 4 and 8 mm rostral to the application hole. Silver wire electrodes were placed in these latter holes and secured to the skull using acrylic cement. A similar silver wire electrode was sutured to the nuchal muscle to serve as a reference electrode. Electrical DC recordings were obtained using a standard differential amplifier (Warner, DP-304) and commercially available data acquisition equipment (Cambridge Electronic Design, 1401 A-D converter and Spike2 software).
All experimental procedures were conducted while the rats were maintained under anesthesia. Rats were injected with test compound, valproic acid or vehicle (100% PEG-400) 15 min prior to the application of crystalline KCl to the application site described above. All injections were given via the jugular vein at a volume of ≦0.5 ml/kg. Only one treatment was tested per animal. The effect of valproic acid was also determined in this study due to the fact that Depakote™ (divalproex sodium) is one of only three drugs currently indicated for the prophylatic treatment of migraine headache. Valproic acid (30-200 mg/kg i.v.) was obtained from Sigma Chemical Company and was dissolved in a vehicle of isotonic saline.
KCl was applied to the application site for 10 min and was then removed using a saline soaked cotton swab. Mineral oil was subsequently reapplied to the application site. Typically, this application produced a long-lasting series of spreading depressions. The number of spreading depressions produced by this KCl application was the primary measure used to access the effectiveness of compounds in this assay.
Data were analyzed using analyses of variance followed by the Dunnett post-hoc test for pairwise comparisons, when appropriate. A difference was considered significant when p≦0.05.
The effect of representative compounds of Formula I on spreading depression is expressed as the percent reduction from vehicle control and is listed in Table 3.

Molecule: CC(NC(=O)/C=C/c1ccc(F)cc1)c1ccc(F)c(N2CCOCC2)c1 (racemic) [Example 152, (±)-N-[1-(4-Fluoro-3-morpho-lin-4-yl-phenyl)-eth-yl]-3-(4-fluoro-phen-yl)-acrylamide]
- Stretched attend postures, percent of vehicle control ([1]; separate experiments with a vehicle control, dose not given): 80 % of vehicle control

Molecule: CC(NC(=O)/C=C/c1cccc(F)c1)c1ccc2c(c1)OCCO2 (racemic) [Example 183, (±)-3-(3-Fluorophenyl)-N-[1-(2.3-dihydrobenzo[1,4]dioxin-6-yl)-ethyl]acrylamide]
- activity at 10 µM [2]: 135%

Molecule: COC(=O)N1CCc2ccc(C(C)NC(=O)/C=C/c3ccccc3)cc2C1 (racemic) [Example 197, (±)-7-[1-(3-Phenyl-acryloyl-amino)-ethyl]-3,4-di-hydro-1H-iso-quinoline-2-carboxylic acid methyl ester]
- activity at 10 µM [2]: 187%

Molecule: COC(=O)N1CCc2ccc(C(C)NC(=O)/C=C/c3ccc(Cl)cc3)cc2C1 (racemic) [Example 199, (±)-7-{1-[3-(4-Chloro-phen-yl)-acryloylamino]-eth-yl}-3,4-dihydro-1H-iso-quinoline-2-carboxylic acid methyl ester]
- activity at 5 µM [2]: 138%

Molecule: COC(=O)N1CCc2ccc(C(C)NC(=O)/C=C/c3ccccc3C)cc2C1 (racemic) [Example 200, (±)-7-[1-(3-o-Tolyl-acryloyl-amino)-ethyl]-3,4-di-hydro-1H-iso-quinoline-2-carboxylic acid methyl ester]
- activity at 10 µM [2]: 126%

Molecule: COC(=O)N1CCc2ccc(C(C)NC(=O)/C=C/c3ccccc3Cl)cc2C1 (racemic) [Example 201, (±)-7-{1-[3-(2-Chloro-phen-yl)-acryloylamino]-eth-yl}-3,4-dihydro-1H-iso-quinoline-2-carboxylic acid methyl ester]
- activity at 5 µM [2]: 157%

Molecule: CC(NC(=O)/C=C/c1ccc(Cl)cc1)c1ccc2c(c1)CCO2 (single isomer, unassigned) [Example 79, 3-(4-Chloro-phenyl)-N-[1-(2,3-di-hydro-benzo-furan-5-yl)-ethyl]-acrylamide]
- activity at 1 µM [2]: 123%

Molecule: O=C1CC2(CCCC2)CC(=O)N1CCCCN1CCN(c2ncccn2)CC1 [Buspirone, buspirone, reference compound]
- % Reduction SAPs ([1]; 0.5 mg/kg, i.v., mouse): 71 (0.5 mg/kg. i.v.) %
- Reduction in stretched attend postures (in words) ([1]; buspirone 0.5 mg/kg, compounds of Formula I administered IV): significant reduction

Molecule: C[C@H](NC(=O)/C=C/c1ccccc1)c1ccc2ccccc2c1 [Example 2, (S)-N-(1-Naphthalen-2-yl-eth-yl)-3-phenyl-acryla-mide]
- activity at 5 µM [2]: 160%

Molecule: COc1cccc(/C=C/C(=O)N[C@@H](C)c2ccc3ccccc3c2)c1OC [Example 6, (S)-3-(2,3-Dimethoxy-phen-yl)-N-(1-naphthalen-2-yleth-yl)-acrylamide]
- activity at 1 µM [2]: 110%

Molecule: C[C@H](NC(=O)/C=C/c1ccc(OC(F)(F)F)cc1)c1ccc2ccccc2c1 [Example 19, (S)-N-(1-Naphthalen-2-yl-eth-yl)-3-(4-tri-fluoromethoxy-phen-yl)-acrylamide]
- activity at 1 µM [2]: 123%

Molecule: NCC1(CC(=O)O)CCCCC1 [Gabapentin, gabapentin, reference compound]
- AUC (Δ% MPE) [3]: 50 (100 mg/kg, i.v.) Δ% MPE

Molecule: CCCC(CCC)C(=O)O [Valproic acid, reference compound]
- % Reduction (number of spreading depressions, from vehicle control) ([4]; 100 mg/kg): 31 (100 mg/kg, i.v.) %

Molecule: (S)-N-[1-(3-(2,6-di- methyl-Morpholin)-4-yl-phen- yl)-ethyl]-3-phen- yl-acrylamide [Example 84]
- % Reduction (number of spreading depressions, from vehicle control) ([4]; 1 mg/kg): 37 (1 mg/kg, i.v.) %
